Measurements reported in patent US20240381872A1, “SUBSTITUTED 2,3-DIHYDRO[1,3]THIAZOLO[4,5-B]PYRIDINES, SALTS THEREOF AND THEIR USE AS HERBICIDALLY ACTIVE SUBSTANCES” (BAYER AKTIENGESELLSCHAFT, priority 2021, published 2024).

Key:
Type in all cases: in vivo
Brassica napus (BRSNW) [1] = assay: Post-emergence effects on crop plants, section F (Table F5); settings: application rate 80 g/ha; for crop plant damage (phytotoxicity) in % at 80 g/ha: Brassica napus, 504 h, read-out: post-emergence activity against BRSNW in %
From the text: (§1) Seeds of mono- and dicotyledonous weed plants and crop plants were sown, in plastic or organic planting pots, in sandy loam, covered with soil and grown in a greenhouse under controlled growth conditions. 2 to 3 weeks after sowing, the test plants were sprayed in the single-leaf stage. The compounds according to the invention, formulated in form of wettable powders (WP) or as emulsifiable concentrates (EC), were sprayed onto the green plant parts as aqueous suspension or emulsion, with the addition of 0.5% of an additive, at an application rate of 600 l of water/ha (converted). The test plants were placed in the greenhouse for ca. 3 weeks under optimum growth conditions, and then the effect of the preparations was assessed visually in comparison with untreated controls (herbicidal effect in percent (%): 100% effect=plants have died off, 0% effect=as control plants). Tables F1 to F4 below show the effects of selected compounds of the general formula (I) according to Table 1 on various crop plants and an application rate corresponding to 320 g/ha or below obtained by the experimental procedure mentioned above.

Veronica persica (VERPE) [2] = assay: Herbicidal pre-emergence action, section C (Table C10); settings: application rate 320 g/ha, visual grading after ca. 3 weeks
From the text: (§2) Seeds of mono- and dicotyledonous weed plants and crop plants were sown, in plastic or organic planting pots, in sandy loam and covered with soil. The compounds according to the invention, formulated in the form of wettable powders (WP) or as emulsifiable concentrates (EC), were applied to the surface of the covering soil as aqueous suspension or emulsion, with the addition of 0.5% of an additive, at an application rate of 600 l of water/ha (converted). Following treatment, the pots were placed in a greenhouse and kept under optimum growth conditions for the test plants. The visual grading of the damage to the test plants was carried out after ca. 3 weeks in comparison to untreated controls (herbicidal effect in percent (%): 100% effect=plants have died off, 0% effect=as control plants).

Glycine max (GLXMA) [3] = assay: Post-emergence effects on crop plants, section F (Table F4)
Outline: (§3)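 Percent damage was rated by eye roughly 3 weeks after treatment against untreated plants, where 0% = as control and 100% = died off. Spraying used WP or EC formulations plus 0.5% additive at 600 l water/ha, with rates of 320 g/ha or less. Plants were at the single-leaf stage, sown 2-3 weeks earlier in sandy loam under greenhouse conditions.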

Brassica napus (BRSNW) [4] = assay: Pre-emergence effects on crop plants, section D (Table D5); settings: visual grading after ca. 3 weeks
From the text: (§4) Seeds of mono- and dicotyledonous weed plants and crop plants were sown, in plastic or organic planting pots, in sandy loam and covered with soil. The compounds according to the invention, formulated in the form of wettable powders (WP) or as emulsifiable concentrates (EC), were applied to the surface of the covering soil as aqueous suspension or emulsion, with the addition of 0.5% of an additive, at an application rate of 600 l of water/ha (converted).
(§5) Following treatment, the pots were placed in a greenhouse and kept under optimum growth conditions for the test plants. The visual grading of the damage to the test plants was carried out after ca. 3 weeks in comparison to untreated controls (herbicidal effect in percent (%): 100% effect=plants have died off, 0% effect=as control plants).
(§6) Tables D1 to D5 below show the effects of various compounds of the general formula (I) according to Table 1 on various crop plants and an application rate corresponding to 320 g/ha or below obtained by the experimental procedure mentioned above in Biological Examples, Section C.

Kochia scoparia (KCHSC) [5] = assay: Herbicidal pre-emergence action, section C (Table C13); settings: application rate 320 g/ha, visual grading after ca. 3 weeks
From the text: as §2

Kochia scoparia (KCHSC) [6] = assay: Herbicidal post-emergence action, section E (Table E11); settings: visual assessment ca. 3 weeks after spraying
From the text: as §1, with “plants).” for “plants). Tables F1 to F4 below show the effects of selected compounds of the general formula (I) according to Table 1 on various crop plants and an application rate corresponding to 320 g/ha or below obtained by the experimental procedure mentioned above.”

[7] = tested on: Polygonum convolvulus (POLCO); assay: Herbicidal pre-emergence action, section C (Table C7); settings: application rate 320 g/ha; visual grading after ca. 3 weeks
From the text: as §2

Zea mays (ZEAMX) [8] = assay: Pre-emergence effects on crop plants, section D (Table D1); settings: visual grading after ca. 3 weeks
From the text: as §4, §5, §6

Zea mays (ZEAMX) [9] = assay: Post-emergence effects on crop plants, section F (Table F1)
Outline: as §3

[10] = tested on: Amaranthus retroflexus (AMARE); assay: Herbicidal pre-emergence action, section C (Table C11); settings: visual grading after ca. 3 weeks
From the text: as §2

[11] = tested on: Triticum aestivum (TRZAS); assay: Pre-emergence effects on crop plants, section D (Table D2); settings: visual grading after ca. 3 weeks
Outline: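 Pre-emergence soil-surface spray, 320 g/ha or below, 600 l water/ha + 0.5% additive; WP/EC formulations; sandy loam; greenhouse; visual % damage vs untreated at ~3 wk.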

[12] = tested on: Triticum aestivum (TRZAS); assay: Post-emergence effects on crop plants, section F (Table F2)
Outline: as §3

Glycine max (GLXMA) [13] = assay: Pre-emergence effects on crop plants, section D (Table D4); settings: visual grading after ca. 3 weeks
From the text: as §4, §5, §6

[14] = tested on: Alopecurus myosuroides (ALOMY); assay: Herbicidal pre-emergence action, section C (Table C2); settings: Alopecurus myosuroides, pre-emergence, 504 h; application rate 320 g/ha; visual grading after ca. 3 weeks vs untreated controls; read-out: pre-emergence activity against ALOMY in %
From the text: as §2

Oryza sativa (ORYZA) [15] = assay: Post-emergence effects on crop plants, section F (Table F3); settings: Oryza sativa, 504 h, read-out: post-emergence activity against ORYZA in %
From the text: as §1

Oryza sativa (ORYZA) [16] = assay: Pre-emergence effects on crop plants, section D (Table D3); settings: visual grading after ca. 3 weeks
From the text: as §4, §5, §6

Veronica persica (VERPE) [17] = assay: Herbicidal post-emergence action, section E (Table E9); settings: Veronica persica, 504 h, application rate 320 g/ha, visual assessment ca. 3 weeks after spraying, read-out: post-emergence activity against VERPE in %
From the text: as §1, with “plants).” for “plants). Tables F1 to F4 below show the effects of selected compounds of the general formula (I) according to Table 1 on various crop plants and an application rate corresponding to 320 g/ha or below obtained by the experimental procedure mentioned above.”

Setaria viridis (SETVI) = assay: Herbicidal pre-emergence action, section C (Table C8); settings: Setaria viridis, pre-emergence, 504 h; application rate 320 g/ha; visual grading after ca. 3 weeks; read-out: pre-emergence activity against SETVI in %
From the text: as §2

[18] = tested on: Echinochloa crus-galli (ECHCG); assay: Herbicidal pre-emergence action, section C (Table C3); settings: Echinochloa crus-galli, pre-emergence, 504 h; application rate 320 g/ha; visual grading after ca. 3 weeks vs untreated controls; read-out: pre-emergence activity against ECHCG in %
From the text: as §2

[19] = tested on: Digitaria sanguinalis (DIGSA); assay: Herbicidal pre-emergence action, section C (Table C12); settings: Digitaria sanguinalis, pre-emergence, 504 h; application rate 320 g/ha; visual grading after ca. 3 weeks; read-out: pre-emergence activity against DIGSA in %
From the text: as §2

[20] = tested on: Polygonum convolvulus (POLCO); assay: Herbicidal post-emergence action, section E (Table E7); settings: Fallopia convolvulus, 504 h, application rate 320 g/ha, visual assessment ca. 3 weeks after spraying, read-out: post-emergence activity against POLCO in %
From the text: as §1, with “plants).” for “plants). Tables F1 to F4 below show the effects of selected compounds of the general formula (I) according to Table 1 on various crop plants and an application rate corresponding to 320 g/ha or below obtained by the experimental procedure mentioned above.”

[21] = crop plant damage, application rate 320 g/ha
[22] = Glycine max, 504 h, application rate 320 g/ha, read-out: post-emergence activity against GLXMA in %
[23] = Zea mays, 504 h, application rate 320 g/ha, read-out: post-emergence activity against ZEAMX in %
[24] = Triticum aestivum, 504 h, application rate 320 g/ha, read-out: post-emergence activity against TRZAS in %

SMILES	pre-emergence activity against ZEAMX in % (crop plant damage) (Zea mays (ZEAMX) [8]; application rate 80 g/ha) [%]	pre-emergence activity against TRZAS in % (crop plant damage) ([11]; application rate 320 g/ha) [%]	pre-emergence activity against GLXMA in % (crop plant damage) (Glycine max (GLXMA) [13]; application rate 80 g/ha) [%]	crop plant damage (phytotoxicity) in % at 80 g/ha (Brassica napus (BRSNW) [1]) [%]	percent crop plant damage at 320 g/ha (Glycine max (GLXMA) [3]; [22]) [%]	pre-emergence activity against BRSNW in % (crop plant damage) (Brassica napus (BRSNW) [4]; application rate 320 g/ha) [%]	pest or weed control at 320 g/ha (Veronica persica (VERPE) [17]) [%]	pest or weed control at 320 g/ha (Setaria viridis (SETVI)) [%]	pest or weed control at 320 g/ha [18] [%]	pre-emergence activity against ZEAMX in % (crop plant damage) (Zea mays (ZEAMX) [8]; application rate 320 g/ha) [%]	percent crop plant damage (phytotoxicity) on Zea mays, post-emergence at 320 g/ha (Zea mays (ZEAMX) [9]; [23]) [%]	percent crop plant damage (wheat, post-emergence) at 320 g/ha [12, 24] [%]	also measured
COCCOCCOCC(=O)N1CSc2cc(Br)c(-c3cccc(F)c3F)nc21 [Example I-148]	0	0	0										post-emergence activity against BRSNW in % (Brassica napus (BRSNW) [1]; crop plant damage): 20%; pre-emergence activity against VERPE in % (Veronica persica (VERPE) [2]): 80%; post-emergence activity against GLXMA in % (Glycine max (GLXMA) [3]; [21]): 0%; pre-emergence activity against BRSNW in % (crop plant damage) (Brassica napus (BRSNW) [4]; application rate 80 g/ha): 0%; pre-emergence activity against KCHSC in % (Kochia scoparia (KCHSC) [5]): 90%; post-emergence activity against KCHSC in % (Kochia scoparia (KCHSC) [6]; application rate 320 g/ha): 80%; pre-emergence activity against POLCO in % [7]: 80%; post-emergence activity against ZEAMX in % (Zea mays (ZEAMX) [9]; [21]): 0%; pre-emergence activity against AMARE in % ([10]; application rate 320 g/ha): 90%; post-emergence activity against TRZAS in % [12, 21]: 0%
O=C(C1CCCC1)N1CSc2cc(Br)c(-c3ccccc3F)nc21 [Example I-021, [6-bromo-5-(2-fluorophenyl)[1,3]thiazolo[4,5-b]pyridin-3(2H)-yl](cyclopentyl)methanone]	0	0		10	20	0	80	80	90				pest or weed control at 320 g/ha [14]: 80%; percent crop plant damage at 80 g/ha (Oryza sativa (ORYZA) [15]; application rate 80 g/ha): 10%; pre-emergence activity against ORYZA in % (crop plant damage) (Oryza sativa (ORYZA) [16]; application rate 80 g/ha): 10%; percent crop plant damage (phytotoxicity) on Zea mays, post-emergence at 80 g/ha (Zea mays (ZEAMX) [9]; Zea mays, 504 h, application rate 80 g/ha, read-out: post-emergence activity against ZEAMX in %): 10%; pest or weed control at 80 g/ha ([10]; Amaranthus retroflexus, pre-emergence, 504 h, application rate 80 g/ha, read-out: pre-emergence activity against AMARE in %): 100%; percent crop plant damage (wheat, post-emergence) at 80 g/ha ([12]; Triticum aestivum, 504 h, application rate 80 g/ha, read-out: post-emergence activity against TRZAS in %): 0%
CS(=O)(=O)N1C[S+]([O-])c2cc(Br)c(-c3ccccc3Cl)nc21 (stereo not shown) [Example I-133]			20	0			80	100	100	20	0	0	pest or weed control at 320 g/ha (Veronica persica (VERPE) [2]; Veronica persica, pre-emergence, 504 h, read-out: pre-emergence activity against VERPE in %): 80%; percent crop plant damage at 80 g/ha (Glycine max (GLXMA) [3]; Glycine max, 504 h, application rate 80 g/ha, read-out: post-emergence activity against GLXMA in %): 0%; pest or weed control at 320 g/ha (Kochia scoparia (KCHSC) [5]; Bassia scoparia, pre-emergence, 504 h, read-out: pre-emergence activity against KCHSC in %): 90%; pest or weed control at 80 g/ha (Kochia scoparia (KCHSC) [6]; Bassia scoparia, 504 h, application rate 80 g/ha, read-out: post-emergence activity against KCHSC in %): 90%; pest or weed control at 320 g/ha [19]: 100%; pre-emergence activity against TRZAS in % (crop plant damage) ([11]; application rate 80 g/ha): 0%; pest or weed control at 320 g/ha [20]: 80%
O=C(c1ccccc1C(F)(F)F)N1CSc2cc(Br)c(-c3ccccc3Cl)nc21 [Example I-061, [6-bromo-5-(2-chlorophenyl)[1,3]thiazolo[4,5-b]pyridin-3(2H)-yl][2-(trifluoromethyl)-phenyl]methanone]		0		0	0	20				0	20	0	percent crop plant damage at 320 g/ha (Oryza sativa (ORYZA) [15]; application rate 320 g/ha): 0%; pre-emergence activity against ORYZA in % (crop plant damage) (Oryza sativa (ORYZA) [16]; application rate 320 g/ha): 20%; pre-emergence activity against GLXMA in % (crop plant damage) (Glycine max (GLXMA) [13]; application rate 320 g/ha): 0%
